Data reported in patent US20250011777A1, “DELIVERY OF ANITSENSE OLIGOMERS BY MIRROR IMAGE PEPTIDES” (SAREPTA THERAPEUTICS, INC., priority 2021, published 2025).

What was measured:
[1] = system: HeLa 654 cells (EGFP gene interrupted by a mutated intron of ß-globin, IVS2-654); experiment: EGFP 654 assay (corrective splicing by PMO IVS2-654, flow cytometry); type: cell-based; conditions: PMO-CPP conjugates, 22 h, read-out: EC50 in concentration-response EGFP assay
Method: Purified constructs were then tested using an activity-based readout in which nuclear delivery results in fluorescence. Briefly, HeLa cells stably transfected with an Enhanced Green Fluorescent Protein (EGFP) gene interrupted by a mutated intron of ß-globin (IVS2-654) produce a non-fluorescent EGFP protein. Successful delivery of PMO IVS2-654 to the nucleus results in corrective splicing and EGFP synthesis.
The amount of PMO delivered to the nucleus is therefore correlated with EGFP fluorescence, quantified by flow cytometry. Activity is reported as mean fluorescence intensity (MFI) relative to PMO alone. This activity assay provides indirect information on how much active PMO is delivered to the nucleus. Relative efficiency of a PMO-CPP could be characterized by comparing activity to internal concentration, as discussed later (FIG. 2). […]
For individual peptide testing, PMO-peptides were dissolved in PBS without Ca2+ or Mg2+ at a concentration of 1 mM (determined by UV) before being diluted in MEM. […] Gates were applied to the data to ensure that cells that were positive for propidium iodide or had forward/side scatter readings that were sufficiently different from the main cell population were excluded. […]
Analysis was conducted using Graphpad Prism 7 and FlowJo. For each sample, the mean fluorescence intensity (MFI) and the number of gated cells was measured. […]

[2] = after administration; cited from earlier work

Substance RXRRBRRXRRBR [BPEP] has an EC50 [1] of roughly 3000 nM.
In the case of Eteplirsen, the “time within which the majority of the drug is cleared renally” value [2] is given as no more than 24 h.
